# Key:
# Assay in all cases: relative viability (nuclei count vs DMSO), 5 days (fraction); higher = more cells survive
# IPA-3 + Navitoclax = compound: C1=CC=C2C(=C1)C=CC(=C2SSC3=C(C=CC4=CC=CC=C43)O)O [IPA-3] + CC1(C)CCC(c2ccc(Cl)cc2)=C(CN2CCN(c3ccc(C(=O)NS(=O)(=O)c4ccc(N[C@H](CCN5CCOCC5)CSc5ccccc5)c(S(=O)(=O)C(F)(F)F)c4)cc3)CC2)C1 [Navitoclax] (partner 0.5 µM)
# Method in brief: (§1)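 Lung cancer cell lines were seeded in 1536-well plates and dosed by pin tool the next day, with either a single drug or a fixed anchor-drug dose combined with five library-drug doses (not always all listed) spaced in √10 steps. Five days later, one step fixed the cells and stained their nuclei (final 0.05% Triton X-100, 1% formaldehyde, 1 ug/ml Hoechst), and nuclei were counted on 4× images. Relative viability is the nuclei count in treated wells divided by the count in vehicle wells, and each value is the median of duplicate plates.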
# IPA-3 + Vorinostat = compound: C1=CC=C2C(=C1)C=CC(=C2SSC3=C(C=CC4=CC=CC=C43)O)O [IPA-3] + O=C(CCCCCCC(=O)Nc1ccccc1)NO [Vorinostat] (partner 1 µM)
# Method in brief: as §1
# Doramapimod + Vorinostat = compound: Cc1ccc(-n2nc(C(C)(C)C)cc2NC(=O)Nc2ccc(OCCN3CCOCC3)c3ccccc23)cc1 [Doramapimod] + O=C(CCCCCCC(=O)Nc1ccccc1)NO [Vorinostat] (partner 1 µM)
# Method in brief: as §1
Cell Line,relative viability (IPA-3 + Navitoclax; first compound 0.2 µM),relative viability (IPA-3 + Navitoclax; first compound 0.6325 µM),relative viability (IPA-3 + Navitoclax; first compound 2 µM),relative viability (IPA-3 + Navitoclax; first compound 6.325 µM),relative viability (IPA-3 + Navitoclax; first compound 20 µM),relative viability (IPA-3 + Vorinostat; first compound 0.2 µM),relative viability (IPA-3 + Vorinostat; first compound 0.6325 µM),relative viability (IPA-3 + Vorinostat; first compound 2 µM),relative viability (IPA-3 + Vorinostat; first compound 6.325 µM),relative viability (IPA-3 + Vorinostat; first compound 20 µM),relative viability (Doramapimod + Vorinostat; first compound 0.02 µM),relative viability (Doramapimod + Vorinostat; first compound 0.06325 µM),relative viability (Doramapimod + Vorinostat; first compound 0.2 µM),relative viability (Doramapimod + Vorinostat; first compound 0.6325 µM),relative viability (Doramapimod + Vorinostat; first compound 2 µM)
NCI-H2085,1.15,0.985,1.25,1.14,1.18,0.868,0.756,0.819,0.726,0.957,0.827,0.821,0.782,0.872,0.722
NCI-H2087,1.15,0.863,0.837,0.859,0.926,0.72,0.841,0.727,0.668,0.821,0.932,0.764,0.668,0.718,0.669
NCI-H2126,0.861,0.816,0.828,0.892,0.891,0.822,0.784,0.746,0.753,0.892,0.792,0.765,0.763,0.671,0.671
NCI-H2170,0.702,0.614,0.552,0.507,0.504,0.87,0.997,1.04,0.768,0.901,0.737,0.882,0.704,0.844,0.814
NCI-H2228,0.917,0.89,0.788,0.886,1.02,0.953,0.809,0.633,0.552,0.737,0.588,0.91,0.496,0.894,0.516
NCI-H2347,0.962,0.792,0.633,0.88,0.988,0.768,0.601,0.634,0.506,0.638,0.652,0.555,0.569,0.644,0.538
NCI-H2405,0.993,0.989,0.929,0.892,0.984,1.17,1.11,1.11,0.922,1.04,1.1,1.12,1.22,0.958,1.02
NCI-H3122,0.994,0.998,1.01,1.12,1.02,1.06,1.2,1.03,1.46,1.14,1.13,1.07,1.12,0.849,0.859
PC-3 [JPC-3],0.813,0.691,0.823,0.803,0.842,0.821,0.816,0.896,0.73,0.767,0.967,1.39,1.22,0.564,0.744
PC-14,1.09,1.03,0.994,0.988,0.974,0.952,0.759,0.616,0.68,0.747,0.802,0.751,0.727,0.898,0.578
RERF-LC-KJ,1.53,0.879,1.1,0.877,1.06,0.829,0.729,0.726,0.653,0.696,0.785,0.715,0.741,0.427,0.729
SK-LU-1,1.39,,0.786,0.878,0.971,0.902,0.779,0.643,0.75,0.852,0.944,0.75,0.824,0.933,0.867
SK-MES-1,1.26,1.12,1.3,,1.04,1.27,1.03,1.09,0.925,1.04,1.21,1.09,1.07,1.12,1.11
SW 1573,0.99,0.67,1.21,1.09,1.13,1.05,0.655,0.865,0.958,0.536,0.9,0.549,0.581,0.791,0.539
